According to ChEMBL document CHEMBL1909046, “DrugMatrix in vitro pharmacology data”:

How the values were obtained:
[1] = molecular target: T1, Alpha-1B adrenergic receptor (Rattus norvegicus, UniProt P15823); assay: DRUGMATRIX: Alpha-1B adrenergic receptor radioligand binding (ligand: prazosin); format: cell membranes, Wistar, Liver, Membrane; settings: Not Active = under 50% inhibition at 10 µM
T1 sequence (P15823 whole entry): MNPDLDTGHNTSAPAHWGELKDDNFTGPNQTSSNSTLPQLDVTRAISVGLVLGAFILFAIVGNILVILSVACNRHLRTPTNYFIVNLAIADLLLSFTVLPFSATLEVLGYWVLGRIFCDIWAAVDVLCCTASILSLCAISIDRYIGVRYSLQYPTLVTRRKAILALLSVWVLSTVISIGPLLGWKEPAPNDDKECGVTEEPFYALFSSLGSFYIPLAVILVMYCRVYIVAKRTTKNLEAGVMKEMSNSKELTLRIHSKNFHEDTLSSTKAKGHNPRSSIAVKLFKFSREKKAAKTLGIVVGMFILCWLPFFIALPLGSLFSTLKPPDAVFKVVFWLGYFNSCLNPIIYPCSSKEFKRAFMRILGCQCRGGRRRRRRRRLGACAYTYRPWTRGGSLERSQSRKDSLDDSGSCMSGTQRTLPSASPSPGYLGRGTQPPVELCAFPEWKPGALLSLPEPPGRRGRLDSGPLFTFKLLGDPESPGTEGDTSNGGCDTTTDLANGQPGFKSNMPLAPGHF

[2] = molecular target: Aldo-keto reductase family 1 member B1 (Rattus norvegicus, UniProt P07943); format: tissue-based, Lens of camera-type eye;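 also: inhibition of aldose reductase enzyme activity, measured with DL-glyceraldehyde as the substrate; in other assays of this panel Not Active means under 50% inhibition at 10 µM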
[3] = molecular target: T2, Vasoactive intestinal polypeptide receptor 1 (Homo sapiens, UniProt P32241); format: cell membranes, Membrane; settings: ht-29; also: in other assays of this panel Not Active means under 50% inhibition at 10 µM
T2 sequence (P32241 whole entry): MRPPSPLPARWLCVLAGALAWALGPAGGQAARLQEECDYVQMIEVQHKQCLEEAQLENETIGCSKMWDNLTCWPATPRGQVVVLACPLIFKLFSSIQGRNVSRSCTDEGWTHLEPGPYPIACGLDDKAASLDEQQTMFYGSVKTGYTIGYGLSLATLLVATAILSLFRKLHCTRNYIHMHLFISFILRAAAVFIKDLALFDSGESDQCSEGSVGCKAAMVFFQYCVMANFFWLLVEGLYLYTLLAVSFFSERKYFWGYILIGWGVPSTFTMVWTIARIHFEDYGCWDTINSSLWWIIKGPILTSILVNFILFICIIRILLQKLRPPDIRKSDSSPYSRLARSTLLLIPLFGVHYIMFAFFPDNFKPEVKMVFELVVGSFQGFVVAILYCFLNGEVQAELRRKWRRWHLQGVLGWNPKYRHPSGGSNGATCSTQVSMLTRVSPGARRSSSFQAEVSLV

Endothelin-1 receptor = molecular target: T3, Endothelin-1 receptor (Homo sapiens, UniProt P25101); format: cell membranes, Membrane; settings: cho-k1; also: in other assays of this panel Not Active means under 50% inhibition at 10 µM
T3 sequence (P25101 whole entry): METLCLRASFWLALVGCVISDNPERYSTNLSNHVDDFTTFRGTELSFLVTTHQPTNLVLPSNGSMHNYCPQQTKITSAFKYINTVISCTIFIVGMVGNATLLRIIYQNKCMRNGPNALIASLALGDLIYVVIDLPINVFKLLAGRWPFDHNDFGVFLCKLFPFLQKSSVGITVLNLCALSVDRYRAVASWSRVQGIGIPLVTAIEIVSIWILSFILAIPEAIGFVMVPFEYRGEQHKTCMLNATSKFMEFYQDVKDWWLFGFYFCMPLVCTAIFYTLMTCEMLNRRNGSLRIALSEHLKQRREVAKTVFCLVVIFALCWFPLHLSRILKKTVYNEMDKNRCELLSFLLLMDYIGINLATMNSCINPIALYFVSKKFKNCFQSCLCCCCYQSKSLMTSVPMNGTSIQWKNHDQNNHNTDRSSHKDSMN

Melanocortin receptor 3 = Melanocortin receptor 3 (Homo sapiens, UniProt P41968); format: cell membranes, Membrane; settings: hek293; also: in other assays of this panel Not Active means under 50% inhibition at 10 µM
[4] = molecular target: T4, Neuropeptide Y receptor type 1 (Homo sapiens, UniProt P25929); format: cell membranes, Membrane; settings: sk-n-mc; also: in other assays of this panel Not Active means under 50% inhibition at 10 µM
T4 sequence (P25929 whole entry): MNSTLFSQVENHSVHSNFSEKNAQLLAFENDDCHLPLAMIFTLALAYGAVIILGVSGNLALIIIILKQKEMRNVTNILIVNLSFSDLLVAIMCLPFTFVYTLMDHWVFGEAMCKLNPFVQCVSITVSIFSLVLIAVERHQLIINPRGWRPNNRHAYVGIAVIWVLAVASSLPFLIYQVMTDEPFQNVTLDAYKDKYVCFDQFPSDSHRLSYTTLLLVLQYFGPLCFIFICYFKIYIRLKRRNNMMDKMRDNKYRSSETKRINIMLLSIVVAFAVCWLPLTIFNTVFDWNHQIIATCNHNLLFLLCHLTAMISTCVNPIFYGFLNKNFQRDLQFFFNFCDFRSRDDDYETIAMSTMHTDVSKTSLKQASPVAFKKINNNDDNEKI

Nitric oxide synthase 1 = Nitric oxide synthase 1 (Rattus norvegicus, UniProt P29476); format: tissue-based, Cerebellum; also: in other assays of this panel Not Active means under 50% inhibition at 10 µM
Cathepsin G = molecular target: T5, Cathepsin G (Homo sapiens, UniProt P08311); format: tissue-based; settings: neutrophil
T5 sequence (P08311 whole entry): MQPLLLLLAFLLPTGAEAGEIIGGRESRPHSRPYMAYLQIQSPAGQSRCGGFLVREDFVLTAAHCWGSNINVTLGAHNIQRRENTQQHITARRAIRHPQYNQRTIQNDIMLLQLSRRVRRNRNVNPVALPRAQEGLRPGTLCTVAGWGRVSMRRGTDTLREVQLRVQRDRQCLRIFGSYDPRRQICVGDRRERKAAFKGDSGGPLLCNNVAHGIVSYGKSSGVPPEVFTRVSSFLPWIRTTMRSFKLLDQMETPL

Interstitial collagenase = molecular target: T6, Interstitial collagenase (Homo sapiens, UniProt P03956); format: tissue-based, Rheumatoid synovial fibroblasts
T6 sequence (P03956 whole entry): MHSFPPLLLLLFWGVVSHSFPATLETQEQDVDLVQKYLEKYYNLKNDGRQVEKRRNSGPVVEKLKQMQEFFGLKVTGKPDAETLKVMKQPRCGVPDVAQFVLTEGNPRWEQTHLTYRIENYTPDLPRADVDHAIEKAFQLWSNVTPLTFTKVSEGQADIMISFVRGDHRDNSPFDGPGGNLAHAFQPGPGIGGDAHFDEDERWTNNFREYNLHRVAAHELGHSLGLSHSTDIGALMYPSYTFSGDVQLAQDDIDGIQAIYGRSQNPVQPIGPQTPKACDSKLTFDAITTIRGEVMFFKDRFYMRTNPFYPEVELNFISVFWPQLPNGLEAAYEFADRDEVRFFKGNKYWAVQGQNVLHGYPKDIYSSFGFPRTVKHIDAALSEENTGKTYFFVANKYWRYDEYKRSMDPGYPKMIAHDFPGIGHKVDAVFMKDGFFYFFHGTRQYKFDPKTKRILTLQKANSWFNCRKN

[5] = molecular target: Mitogen-activated protein kinase 3 (Homo sapiens, UniProt P27361); assay: DRUGMATRIX: Protein Serine/Threonine Kinase, ERK1 enzyme inhibition (substrate: Myelin Basic Protein); design: species or system Escherichia coli; settings: Not Active = under 50% inhibition at 10 µM

Measured: IC50

Chain of Mitogen-activated protein kinase 3 (P27361 whole entry): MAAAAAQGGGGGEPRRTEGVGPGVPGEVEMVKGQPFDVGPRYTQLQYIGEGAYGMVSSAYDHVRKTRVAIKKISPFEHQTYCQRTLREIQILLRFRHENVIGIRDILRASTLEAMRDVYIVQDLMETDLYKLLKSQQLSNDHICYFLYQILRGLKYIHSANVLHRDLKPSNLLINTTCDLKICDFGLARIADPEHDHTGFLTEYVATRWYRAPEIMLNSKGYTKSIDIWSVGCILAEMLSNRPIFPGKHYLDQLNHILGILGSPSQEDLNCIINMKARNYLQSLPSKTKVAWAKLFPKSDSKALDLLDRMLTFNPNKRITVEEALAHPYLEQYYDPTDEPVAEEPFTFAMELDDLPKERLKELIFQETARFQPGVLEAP
Chain of Nitric oxide synthase 1 (P29476 whole entry): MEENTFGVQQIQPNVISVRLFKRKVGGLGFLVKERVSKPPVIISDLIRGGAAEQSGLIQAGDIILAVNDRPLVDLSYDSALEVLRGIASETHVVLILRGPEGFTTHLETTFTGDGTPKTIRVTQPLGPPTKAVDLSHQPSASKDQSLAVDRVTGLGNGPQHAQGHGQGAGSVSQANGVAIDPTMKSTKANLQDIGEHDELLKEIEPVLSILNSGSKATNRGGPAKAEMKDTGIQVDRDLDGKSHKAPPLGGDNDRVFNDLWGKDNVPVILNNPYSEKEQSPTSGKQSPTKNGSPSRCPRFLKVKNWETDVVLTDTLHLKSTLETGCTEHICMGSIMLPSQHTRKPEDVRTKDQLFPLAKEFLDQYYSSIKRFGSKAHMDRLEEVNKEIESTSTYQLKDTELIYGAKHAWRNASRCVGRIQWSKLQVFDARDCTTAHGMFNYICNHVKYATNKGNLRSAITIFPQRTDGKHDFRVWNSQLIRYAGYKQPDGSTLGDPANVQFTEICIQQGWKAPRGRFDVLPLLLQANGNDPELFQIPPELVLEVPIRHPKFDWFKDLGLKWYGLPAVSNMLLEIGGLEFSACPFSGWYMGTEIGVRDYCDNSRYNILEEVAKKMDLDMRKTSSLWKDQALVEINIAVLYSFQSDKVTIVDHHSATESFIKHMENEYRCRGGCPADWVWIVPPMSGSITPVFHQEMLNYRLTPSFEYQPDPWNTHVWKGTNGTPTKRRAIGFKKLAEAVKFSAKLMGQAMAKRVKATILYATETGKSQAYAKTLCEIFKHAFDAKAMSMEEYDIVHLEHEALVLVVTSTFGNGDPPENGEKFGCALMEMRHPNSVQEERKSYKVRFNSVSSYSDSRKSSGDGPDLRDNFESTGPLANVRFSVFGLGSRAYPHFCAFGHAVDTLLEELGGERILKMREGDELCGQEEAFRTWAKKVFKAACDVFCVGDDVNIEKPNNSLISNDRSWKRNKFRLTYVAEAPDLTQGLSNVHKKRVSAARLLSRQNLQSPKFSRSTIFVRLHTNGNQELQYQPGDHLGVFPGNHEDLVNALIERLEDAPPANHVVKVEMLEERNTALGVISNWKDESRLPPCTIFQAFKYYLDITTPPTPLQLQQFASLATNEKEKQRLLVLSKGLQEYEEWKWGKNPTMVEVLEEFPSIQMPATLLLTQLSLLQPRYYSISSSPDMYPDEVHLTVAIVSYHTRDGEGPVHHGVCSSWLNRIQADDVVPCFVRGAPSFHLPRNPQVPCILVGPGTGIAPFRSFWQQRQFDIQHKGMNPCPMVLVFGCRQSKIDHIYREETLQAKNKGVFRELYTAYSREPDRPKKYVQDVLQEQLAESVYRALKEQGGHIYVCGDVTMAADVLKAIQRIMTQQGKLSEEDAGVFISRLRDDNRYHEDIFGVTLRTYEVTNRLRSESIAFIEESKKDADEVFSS
Chain of Melanocortin receptor 3 (P41968 whole entry): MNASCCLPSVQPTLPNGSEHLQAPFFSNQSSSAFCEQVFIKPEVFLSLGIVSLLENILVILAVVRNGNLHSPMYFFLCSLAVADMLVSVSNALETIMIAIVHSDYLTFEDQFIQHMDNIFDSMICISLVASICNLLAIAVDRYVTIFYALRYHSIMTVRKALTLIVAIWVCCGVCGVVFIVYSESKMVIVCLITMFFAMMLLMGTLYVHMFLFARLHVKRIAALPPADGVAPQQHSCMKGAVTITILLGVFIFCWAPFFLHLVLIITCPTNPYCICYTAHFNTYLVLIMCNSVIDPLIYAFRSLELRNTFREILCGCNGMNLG

CC(=O)[C@@]1(O)CC[C@H]2[C@@H]3C[C@H](C)C4=CC(=O)C=C[C@]4(C)[C@@]3(F)[C@@H](O)C[C@@]21C [FLUOROMETHOLONE]
Not Active: all assays above

O=c1[nH]cc(F)c(=O)[nH]1 [FLUOROURACIL]
Not Active: all assays above

CC(C)n1c(/C=C/C(O)CC(O)CC(=O)O)c(-c2ccc(F)cc2)c2ccccc21 (stereo not given) [FLUVASTATIN]
Not Active: all assays above

O=C1OCCN1/N=C/c1ccc([N+](=O)[O-])o1 [FURAZOLIDONE]
Not Active: all assays above

NCC1(CC(=O)O)CCCCC1 [GABAPENTIN]
Not Active: all assays above

CC[N+](CC)(CC)CCOc1cccc(OCC[N+](CC)(CC)CC)c1OCC[N+](CC)(CC)CC.[I-].[I-].[I-] [GALLAMINE TRIETHIODIDE]
Not Active: all assays above

Nc1nc2c(ncn2COC(CO)CO)c(=O)[nH]1 [GANCICLOVIR]
Not Active: all assays above

COc1c(N2CCNC(C)C2)c(F)cc2c(=O)c(C(=O)O)cn(C3CC3)c12 (stereo not given) [GATIFLOXACIN]
Not Active: all assays above

NCC(=O)O [GLYCINE]
Not Active: all assays above
